21 molecules from US10166218B2, “3-(1H-indol-2-yl)-1H-pyrazolo[3,4-C]pyridines and therapeutic uses thereof” (Samumed, LLC, priority 2015, dated 2019) can be followed below.

Common to all, as to type: cell-based
For assay [1], the system named is Wnt activity (Sp5-Luc reporter, TCF/LEF binding sites) in SW480 colon carcinoma cells. In words: Screening assay for Wnt activity: Sp5-Luc reporter gene assay in stably transduced SW480 cells. The following applies: Homo sapiens; for EC50: overnight incubation; for inhibition at 10 µM: read-out: percent inhibition at 10 μM (given for EC50 of >10 μM). An outline of the steps: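 SW480 cells stably transduced with an Sp5 promoter (eight TCF/LEF sites)–firefly luciferase lentiviral reporter, plated at 4,000 cells/well in 1% FBS medium with compounds (10-point 1:3 series from 10 μM, 0.1% DMSO) overnight at 37 °C. BrightGlo luminescence normalised to DMSO; EC50 by four-parameter fit, else % inhibition at 10 μM.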

A further assay has as its system SW480 colon cancer cells. In words: Cell viability assay (CellTiter-Blue) in SW480 colon cancer cells. The following applies: Homo sapiens, 96 h, four days; for EC50: CellTiter-Blue; for inhibition at 10 µM: read-out: percent inhibition at 10 μM (given for EC50 of >10 μM). The method in brief: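 SW480 colon cancer cells (~2×10^3/well) exposed to 8-point 1:3 dilutions from 10 μM to 0.0045 μM for four days at 37 °C/5% CO2. Viability read by resazurin (CellTiter-Blue) fluorescence after ~3 h, Ex 560/Em 590 nm. EC50 from non-linear regression; percent inhibition at 10 μM given when EC50 >10 μM.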

The subject of the next assay is IL-6 (THP-1 cells). The experiment in a line: Inhibition of IL-6 in LPS-stimulated THP-1 human monocyte cells (HTRF). The following applies: for inhibition at 10 µM: IL-6 assay in LPS-stimulated THP-1 cells, given only where EC50 >10 μM, meaning not given (top concentration 10 μM), read-out: percentage given in parentheses after EC50 >10; for EC50: inhibition of IL-6 in LPS-stimulated THP-1 cells, HTRF, 10-point dose-response starting from 10 μM. The method in brief: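 THP-1 cells, serum-reduced (1% FBS) for 24 h, were preincubated with compound (10-point 1:3 series from 10 μM, 0.1% DMSO) for 2 h, then stimulated with 500 ng/mL LPS for 22 h at 37° C. IL-6 was read by HTRF (665/620 nm ratio) and normalized to DMSO. EC50 from four-parameter fit; % inhibition at 10 μM given if EC50 >10 μM.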

For the molecule `Cc1ccncc1-c1cc2c(-c3cc4c(-c5cccc(F)c5)cccc4[nH]3)n[nH]c2cn1` [Compound 5, 3-(4-(3-Fluorophenyl)-1H-indol-2-yl)-5-(4-methylpyridin-3-yl)-1H-pyrazolo [3,4-c]pyridine], the EC50 is 590 nM in assay [1], 6840 nM in the assay on SW480 colon cancer cells and above 10000 nM with IL-6 (THP-1 cells). In addition, the inhibition at 10 µM in the assay on IL-6 (THP-1 cells) stood at 30.7%.

On to `O=C(Nc1cncc(-c2cc3c(-c4cc5c(-c6cccc(F)c6)cccc5[nH]4)n[nH]c3cn2)c1)c1ccccc1` [Compound 11, N-(5-(3-(4-(3-Fluorophenyl)-1H-indol-2-yl)-1H-pyrazolo[3,4-c]pyridin-5-yl)pyridin-3-yl)benzamide], for which the inhibition at 10 µM in assay [1] was 50.2%. The half-maximal effective concentration (EC50) is above 10000 nM in assay [1], 5420 nM in the assay on SW480 colon cancer cells and 3210 nM in the assay with IL-6 (THP-1 cells).

For the molecule `O=C(Nc1cncc(-c2cc3c(-c4cc5c(-c6cccc(F)c6)cccc5[nH]4)n[nH]c3cn2)c1)C1CCC1` [Compound 21, N-(5-(3-(4-(3-Fluorophenyl)-1H-indol-2-yl)-1H-pyrazolo[3,4-c]pyridin-5-yl)pyridin-3-yl)cyclobutanecarboxamide], the EC50 is 1510 nM in assay [1], above 10000 nM in the assay on SW480 colon cancer cells and above 10000 nM in the assay with IL-6 (THP-1 cells). Further, the inhibition at 10 µM was 11.5% in the assay on SW480 colon cancer cells and 0% with IL-6 (THP-1 cells).

On to `CC(C)CC(=O)Nc1cncc(-c2cc3c(-c4cc5c(-c6ccc(F)cc6)cccc5[nH]4)n[nH]c3cn2)c1` [Compound 30, N-(5-(3-(4-(4-Fluorophenyl)-1H-indol-2-yl)-1H-pyrazolo[3,4-c]pyridin-5-yl)pyridin-3-yl)-3-methylbutanamide], for which the EC50 in assay [1] is 1540 nM; with SW480 colon cancer cells, above 10000 nM; in the assay with IL-6 (THP-1 cells) it was 5130 nM. Also, in the assay on SW480 colon cancer cells, the inhibition at 10 µM is 28.3%.

Regarding `CCNCc1cncc(-c2cc3c(-c4cc5c(-c6ccc(F)cc6)cccc5[nH]4)n[nH]c3cn2)c1` [Compound 34, N-((5-(3-(4-(4-Fluorophenyl)-1H-indol-2-yl)-1H-pyrazolo[3,4-c]pyridin-5-yl)pyridin-3-yl)methyl)ethanamine], the EC50 in assay [1] was 382 nM; with SW480 colon cancer cells, 805 nM; in the assay on IL-6 (THP-1 cells), 399 nM.

On to `O=C(Cc1ccccc1)Nc1cncc(-c2cc3c(-c4cc5c(-c6ccc(F)cc6)cccc5[nH]4)n[nH]c3cn2)c1` [Compound 38, N-(5-(3-(4-(4-Fluorophenyl)-1H-indol-2-yl)-1H-pyrazolo[3,4-c]pyridin-5-yl)pyridin-3-yl)-2-phenylacetamide], for which the EC50 was 4310 nM in assay [1], 4320 nM in the assay with SW480 colon cancer cells and above 10000 nM with IL-6 (THP-1 cells). Besides, the inhibition at 10 µM in the assay with IL-6 (THP-1 cells) worked out at 29.4%.

Turning to `Fc1ccc(-c2cccc3[nH]c(-c4n[nH]c5cnc(-c6cncc(CN7CCCC7)c6)cc45)cc23)cc1` [Compound 42, 3-(4-(4-Fluorophenyl)-1H-indol-2-yl)-5-(5-(pyrrolidin-1-ylmethyl)pyridin-3-yl)-1H-pyrazolo[3,4-c]pyridine], the EC50 in assay [1] amounted to 1840 nM; with SW480 colon cancer cells, 1080 nM; with IL-6 (THP-1 cells) it was 3810 nM.

Take `O=C(Nc1cncc(-c2cc3c(-c4cc5c(-c6ccc(F)cc6)cccc5[nH]4)n[nH]c3cn2)c1)C1CCCCC1` [Compound 51, N-(5-(3-(4-(4-Fluorophenyl)-1H-indol-2-yl)-1H-pyrazolo[3,4-c]pyridin-5-yl)pyridin-3-yl)cyclohexanecarboxamide]: the inhibition at 10 µM was found to be 32.6% in assay [1] and 6.7% with IL-6 (THP-1 cells). Moreover, the EC50 in assay [1] was above 10000 nM; with SW480 colon cancer cells it was 9620 nM; in the assay on IL-6 (THP-1 cells), above 10000 nM.

`Fc1ccc(-c2cccc3[nH]c(-c4n[nH]c5cnc(-c6cncnc6)cc45)cc23)cc1` [Compound 55, 3-(4-(4-Fluorophenyl)-1H-indol-2-yl)-5-(pyrimidin-5-yl)-1H-pyrazolo[3,4-c]pyridine]: the EC50 in assay [1] is 4140 nM; with SW480 colon cancer cells, above 10000 nM; with IL-6 (THP-1 cells) it was 9590 nM. Also, the inhibition at 10 µM in the assay on SW480 colon cancer cells came out at 13.6%.

On to `Nc1cncc(-c2cc3c(-c4cc5c(-c6ccccc6F)cccc5[nH]4)n[nH]c3cn2)c1` [Compound 59, 5-(3-(4-(2-Fluorophenyl)-1H-indol-2-yl)-1H-pyrazolo[3,4-c]pyridin-5-yl) pyridin-3-amine], for which the results for the concentration for a half-maximal effect (EC50) (in assay [1]; in the assay with SW480 colon cancer cells; in the assay on IL-6 (THP-1 cells)) were 296 nM, 1300 nM and 968 nM, respectively.

Consider `CC(C)C(=O)Nc1cncc(-c2cc3c(-c4cc5c(-c6ccccc6F)cccc5[nH]4)n[nH]c3cn2)c1` [Compound 65, N-(5-(3-(4-(2-Fluorophenyl)-1H-indol-2-yl)-1H-pyrazolo[3,4-c]pyridin-5-yl)pyridin-3-yl)isobutyramide], for which the values for the inhibition at 10 µM (in assay [1]; in the assay with IL-6 (THP-1 cells)) were 35.8% and 30.1%, respectively. Further, the 50% effective concentration (EC50) in assay [1] was above 10000 nM; with SW480 colon cancer cells, 5050 nM; with IL-6 (THP-1 cells), above 10000 nM.

On to `Fc1ccccc1-c1cccc2[nH]c(-c3n[nH]c4cnc(-c5cncc(CN6CCCCC6)c5)cc34)cc12` [Compound 71, 3-(4-(2-Fluorophenyl)-1H-indol-2-yl)-5-(5-(piperidin-1-ylmethyl)pyridin-3-yl)-1H-pyrazolo[3,4-c]pyridine], for which the figures for the EC50 (in assay [1]; with SW480 colon cancer cells; in the assay with IL-6 (THP-1 cells)) were 2090 nM, 1660 nM and 7660 nM, respectively.

Take `CCCCC(=O)Nc1cncc(-c2cc3c(-c4cc5c(-c6ccccc6F)cccc5[nH]4)n[nH]c3cn2)c1` [Compound 75, N-(5-(3-(4-(2-Fluorophenyl)-1H-indol-2-yl)-1H-pyrazolo[3,4-c]pyridin-5-yl)pyridin-3-yl)pentanamide]: the results for the inhibition at 10 µM (in assay [1]; with SW480 colon cancer cells) were 11.1% and 10.7%, respectively. Also, the EC50 in assay [1] was above 10000 nM; in the assay on SW480 colon cancer cells it was above 10000 nM; in the assay with IL-6 (THP-1 cells), 3 nM.

With `O=C(Nc1cncc(-c2cc3c(-c4cc5c(-c6ccccc6F)cccc5[nH]4)n[nH]c3cn2)c1)C1CC1` [Compound 76, N-(5-(3-(4-(2-Fluorophenyl)-1H-indol-2-yl)-1H-pyrazolo[3,4-c]pyridin-5-yl)pyridin-3-yl)cyclopropanecarboxamide], the EC50 in assay [1] was 940 nM; in the assay with SW480 colon cancer cells it was 6550 nM; in the assay with IL-6 (THP-1 cells), above 10000 nM. For the same molecule, in the assay with IL-6 (THP-1 cells), the inhibition at 10 µM was 11.1%.

Regarding `CCC(=O)Nc1cncc(-c2cc3c(-c4cc5c(-c6cccnc6)cccc5[nH]4)n[nH]c3cn2)c1` [Compound 85, N-(5-(3-(4-(Pyridin-3-yl)-1H-indol-2-yl)-1H-pyrazolo[3,4-c]pyridin-5-yl)pyridin-3-yl)propionamide], the EC50 in assay [1] is 305 nM; in the assay on SW480 colon cancer cells it was 1160 nM; in the assay on IL-6 (THP-1 cells), 74 nM.

Turning to `c1cncc(-c2cc3c(-c4cc5c(-c6cccnc6)cccc5[nH]4)n[nH]c3cn2)c1` [Compound 88, 5-(Pyridin-3-yl)-3-(4-(pyridin-3-yl)-1H-indol-2-yl)-1H-pyrazolo[3,4-c]pyridine], the EC50 in assay [1] is 260 nM; with SW480 colon cancer cells, 1090 nM; in the assay on IL-6 (THP-1 cells), 109 nM.

As to `CC(C)C(=O)Nc1cncc(-c2cc3c(-c4cc5c(-c6cccnc6)cccc5[nH]4)n[nH]c3cn2)c1` [Compound 93, N-(5-(3-(4-(Pyridin-3-yl)-1H-indol-2-yl)-1H-pyrazolo[3,4-c]pyridin-5-yl)pyridin-3-yl)isobutyramide], the EC50 in assay [1] stood at 275 nM; with SW480 colon cancer cells, 305 nM; in the assay on IL-6 (THP-1 cells), 181 nM.

Take `O=C(Nc1cncc(-c2cc3c(-c4cc5c(-c6cccnc6)cccc5[nH]4)n[nH]c3cn2)c1)c1ccccc1` [Compound 95, N-(5-(3-(4-(Pyridin-3-yl)-1H-indol-2-yl)-1H-pyrazolo[3,4-c]pyridin-5-yl)pyridin-3-yl)benzamide]: the EC50 turned out to be 400 nM in assay [1], 1400 nM in the assay on SW480 colon cancer cells and 727 nM with IL-6 (THP-1 cells).

`c1cncc(-c2cccc3[nH]c(-c4n[nH]c5cnc(-c6cncc(CN7CCCC7)c6)cc45)cc23)c1` [Compound 98, 3-(4-(Pyridin-3-yl)-1H-indol-2-yl)-5-(5-(pyrrolidin-1-ylmethyl)pyridin-3-yl)-1H-pyrazolo[3,4-c]pyridine]: the EC50 came to 1200 nM in assay [1], 7220 nM in the assay with SW480 colon cancer cells and 1520 nM in the assay on IL-6 (THP-1 cells).

Consider `O=C(Nc1cncc(-c2cc3c(-c4cc5c(-c6cccnc6)cccc5[nH]4)n[nH]c3cn2)c1)C1CC1` [Compound 104, N-(5-(3-(4-(Pyridin-3-yl)-1H-indol-2-yl)-1H-pyrazolo[3,4-c]pyridin-5-yl)pyridin-3-yl)cyclopropanecarboxamide], for which the EC50 was determined as 336 nM in assay [1], 1470 nM in the assay on SW480 colon cancer cells and 226 nM in the assay with IL-6 (THP-1 cells).

Turning to `Cc1ccncc1-c1cc2c(-c3cc4c(-c5ccncc5)cccc4[nH]3)n[nH]c2cn1` [Compound 117, 5-(4-Methylpyridin-3-yl)-3-(4-(pyridin-4-yl)-1H-indol-2-yl)-1H-pyrazolo [3,4-c]pyridine], the values for the inhibition at 10 µM (in assay [1]; with SW480 colon cancer cells; in the assay on IL-6 (THP-1 cells)) were 43.1%, 16.6% and 53%, respectively. For the same molecule, the EC50 (in assay [1]; in the assay with SW480 colon cancer cells; in the assay on IL-6 (THP-1 cells)) was above 10000 nM throughout.
